Test results: patent publication US10351525B2, “Beta lactamase inhibitors” (Oxford University Innovation Limited, priority 2014, dated 2019)

Legend:
VIM-2 = target: T1, VIM-2 (Escherichia coli, UniProt Q5U7L7); details: Spicer et al, NIH Probe Reports 2010, read-out: IC50 against VIM-2, reported value; cited from earlier work
T1 construct: made in house; host or cells: Escherichia coli

[1] = test system: Galleria mellonella wax moth larvae; assay: In vivo toxicity in wax moth larvae model; details: doses up to 80 mg/kg
K. oxytoca 95 = assay: MIC of MEM with and without ML302F (1:8), VIM-4 producer; format: cell-based; details: Klebsiella oxytoca; K. oxytoca 95 (VIM-4); MEM alone or with ML302F (1:8)
Method: (§1) In a further study, antimicrobial activities of MEM and ML302F alone and in combination were assessed in-vitro against 31 VIM-producing clinical isolates.

K. pneumoniae 101 = assay: as above; format: cell-based; details: Klebsiella pneumoniae; K. pneumoniae 101 (VIM-4); MEM alone or with ML302F (1:8)
Method: as §1

K. pneumoniae 120 = assay: as above; format: cell-based; details: Klebsiella pneumoniae; K. pneumoniae 120 (VIM-4); MEM alone or with ML302F (1:8)
Method: as §1

K. pneumoniae 196 = assay: as above; format: cell-based; details: Klebsiella pneumoniae; K. pneumoniae 196 (VIM-4); MEM alone or with ML302F (1:8)
Method: as §1

K. oxytoca 126 = assay: as above; format: cell-based; details: Klebsiella oxytoca; K. oxytoca 126 (VIM-4); MEM alone or with ML302F (1:8)
Method: as §1

E. coli 98 = assay: as above; format: cell-based; details: Escherichia coli; E. coli 98 (VIM-4); MEM alone or with ML302F (1:8)
Method: as §1

[2] = test system: K. pneumoniae NCTC 5055 (wt); assay: Meropenem MIC with and without inhibitor; format: cell-based; details: Klebsiella pneumoniae, NCTC5055, read-out: Meropenem MIC in the absence of inhibitor
Method: (§2) Further studies were carried out to determine if ML302F/ML302 potentiates β-lactam antibiotic activity in clinically derived strains containing IMP-1, IMP-4, VIM-4 or NDM-1, which are the most commonly observed MBLs in clinical isolates. All strains producing MBLs were confirmed as resistant to meropenem at the Clinical and Laboratory Standards Institute (U.S.A.) defined breakpoint of 8 μg/mL for Enterobacteriace (see Table 2 below). The minimum inhibitory concentration (MIC) of meropenem against wildtype and MBL producing Escherichia coli and Klebsiella pneumoniae strains was determined with and without increasing concentrations of ML302 or ML302F. Clinical and Laboratory Standards Institute. 2012. Methods for dilution antimicrobial susceptibility tests for bacteria that grow aerobically; 9th ed. Approved standard M07-A9. CLSI, Wayne, Pa.; and Clinical and Laboratory Standards Institute. 2012. Performance standards for antimicrobial susceptibility testing; 22nd informational supplement M100-S22. CLSI, Wayne, Pa.

E. coli 25722 (wt) = assay: Meropenem MIC with and without inhibitor; format: cell-based; details: Escherichia coli, read-out: Meropenem MIC in the absence of inhibitor
Method: as §2

CN1CCN(NC(=O)CN2C(=O)C(=Cc3c(Cl)ccc(Cl)c3Cl)SC2=S)CC1 (mixture of isomers) [ML302, N-(4-Methylpiperazin-1-yl)-2-(4-oxo-2-thioxo-5-(2,3,6-trichlorobenzylidene)thiazolidin-3-yl)acetamide]
IC50 (VIM-2): 548 nM

O=C(O)C(S)=Cc1c(Cl)ccc(Cl)c1Cl (racemic) [ML302F, 2-Mercapto-3-(2,3,6-trichlorophenyl)acrylic acid]
In vivo toxicity ([1]; G. mellonella, injection): non-toxic | Survival of all larvae ([1]; injection into hemocoel, at 96 hrs): 100%

C[C@@H](O)[C@H]1C(=O)N2C(C(=O)O)=C(S[C@@H]3CN[C@H](C(=O)N(C)C)C3)[C@H](C)[C@H]12 [Meropenem, meropenem]
MIC (K. oxytoca 95): 32 µg/mL | MIC (K. pneumoniae 101): 32 µg/mL | MIC (K. pneumoniae 120): 16 µg/mL | MIC (K. pneumoniae 196): 16 µg/mL | MIC (K. oxytoca 126): 32 µg/mL | MIC (E. coli 98): 16 µg/mL | MIC [2]: ≤ 0.25 µg/mL | MIC (E. coli 25722 (wt)): ≤ 0.25 µg/mL
